For six compounds, IC50 results are on record in patent US6838478B2, “Amino acid derivatives and their use as thrombin inhibitors” (AstraZeneca AB, priority 1996, dated 2005).

This test concerns the target T1, Human thrombin (Homo sapiens, UniProt P00734).
T1 construct: purchased Sigma Chem Co T 6769
Description: Test A: determination of thrombin clotting time (TT). The test is classed as biochemical. Particulars: concentration of inhibitor that doubles the thrombin clotting time for human plasma. How it is done: Determination of Thrombin Clotting Time (TT)
Human thrombin (T 6769, Sigma Chem Co) in buffer solution, pH 7.4, 100 μI, and inhibitor solution, 100 μl, were incubated for one min. Pooled normal citrated human plasma, 100 μl, was then added and the clotting time measured in an automatic device (KC 10, Amelung).
The clotting time in seconds was plotted against the inhibitor concentration, and the IC50TT was determined by interpolation.
IC50TT is the concentration of inhibitor in the test that doubles the thrombin clotting time for human plasma.

`COc1cccc(C(CO)C(=O)N2CCC2C(=O)NCc2ccc(C(N)=NO)cc2)c1` (single isomer, unassigned) [Example 9, (R)- or (S)-3-Methoxyphenyl-CH(CH2OH)—C(O)-Aze-Pab-OH] showed a concentration for half-maximal inhibition (IC50) greater than 1000 nM.
On to `COc1cccc(C(CO)C(=O)N2CCCC2C(=O)NCc2ccc(C(N)=NC(=O)OCc3ccccc3)cc2)c1` (single isomer, unassigned) [Example 10, (S)- or (R)-3-Methoxyphenyl-CH(CH2OH)CO-Pro-Pab(Z)], for which the IC50 was greater than 1000 nM.
`COc1cccc(C(CO)C(=O)N2CCCC2C(=O)NCc2ccc(C(N)=NO)cc2)c1` (single isomer, unassigned) [Example 13, (S)- or (R)-3-Methoxyphenyl-CH(CH2OH)—C(O)-Pro-Pab-OH]: the IC50 is greater than 1000 nM.
`CCC(=O)ON=C(N)c1ccc(CNC(=O)C2CCCN2C(=O)C(CO)c2cccc(OC)c2)cc1` (single isomer, unassigned) [Example 14, (S)- or (R)-3-Methoxyphenyl-CH(CH2OH)—C(O)-Pro-Pab-OC(O)Et] returned an IC50 greater than 1000 nM.
In the case of `NC(=NO)c1ccc(CNC(=O)C2CCCN2C(=O)C(CO)c2ccccc2)cc1` [Example 8, (R,S)-Ph-CH(CH2OH)—C(O)-Pro-Pab-OH], the 50% inhibitory concentration (IC50) is greater than 1000 nM.
For `COCC(C)(C(=O)N1CCCC1C(=O)NCc1ccc(C(N)=NC(=O)OCc2ccccc2)cc1)c1ccccc1` [Example 40, (R,S)-Ph-C(Me)(CH2OMe)-C(O)-Pro-Pab(Z)] the value was greater than 1000 nM.

In general, IC50 refers to the concentration that gives 50% inhibition. A high value points to a need for much substance.
